Measured values published in patent publication US9493460B2, “Diimide compounds” (UCL BUSINESS PLC, priority 2013, dated 2016).
Read-outs that look alike come from different tables or passages of the source.

Key:
[1] = test system: MCF-7 (breast) cells; assay: SRB growth inhibition assay, 96 hr exposure, MCF-7; assay type: cell-based, human
Experimental: (§1) Human cancer cell lines, MCF7 (breast), A549 (lung), Mia-PaCa2, PANC1 and HPAC (pancreatic), RCC4 and 786-0 renal, and the somatic human cell line WI-38 (lung fibroblast) were purchased from ATCC. Cell lines were maintained in appropriate medium supplemented with 10% foetal bovine serum (Invitrogen, UK), 2 mM L-glutamine (Invitrogen, Netherlands), and other components as specified by the suppliers. Cell lines were maintained at 37° C., 5% CO2 and routinely passaged. Drugs were dissolved in DMSO and filtered through 0.22 μm pore-size filter units before addition to cell line appropriate media. Cellular growth inhibition was measured using the sulforhodamine B (SRB) assay in 96 well plates as described previously.^1,2 Fifty percent inhibitory concentrations (IC50) were determined by taking the mean absorbance at 540 nm for each drug concentration expressed as a percentage of the absorbance of untreated control wells.
(§2) The anti-proliferative activity of the group of nine ND derivatives was assessed using the SRB assay following 96 h exposure to 2-fold serial dilutions of each compound (Table 2) in a panel of cancer cell lines together with a normal fibroblast line. […] In contrast the morpholine compounds all show sub-μM anti-proliferative activity in at least some of the cancer cell lines used and the two compounds 3d, 3h with n=3 —(CH2)n— linkers to the morpholine groups, show particularly potent activity in the Mia-PaCa2 and PANC1 pancreatic carcinoma and A549 lung adenocarcinoma cell lines (IC50 values of 10-20 nM).
(§3) Next a series of structural isomers were tested.

[2] = test system: HSP90a promoter quadruplex sequence; assay: FRET melting assay, Hsp90A quadruplex; assay type: binding; conditions: for change in melting temperature Hsp90A 1 uM: 1 uM ligand; for change in melting temperature Hsp90A 2 uM: 2 uM ligand
From the text: (§4) The ability of the naphthalene diimide compounds to stabilize DNA sequences was investigated using a fluorescence resonance energy transfer (FRET) assay modified to be used as a high-throughput screen in a 96-well format. Several quadruplex sequences were studied (the human telomeric G-quadruplex DNA sequence 5′-FAM-d(GGG[TTAGGG]3)-TAMRA-3′ and the duplex sequence 5′-FAM-dTATAGCTATA-HEG-TATAGCTATA-TAMRA-3′ (HEG linker: [(—CH2—CH2—O—)6])), as well as two overlapping sequences from the HSP90 promoter region (HSP90a and HSP90b):
(§5) The labelled oligonucleotides have attached to them the donor fluorophore FAM: 6-carboxyfluorescein and the acceptor fluorophore TAMRA: 6-carboxytetramethylrhodamine. The FRET probe sequences were diluted from stock to the correct concentration (400 nM) in a 60 mM potassium cacodylate buffer (pH 7.4) and then annealed by heating to 85° C. for 10 min, followed by cooling to room temperature in the heating block. The compound was stored as a 10 mM stock solution in DMSO; final solutions (at 2×concentration) were prepared using 10 mM HCl in the initial 1:10 dilution, after which 60 mM potassium cacodylate buffer (pH 7.4) was used in all subsequent steps. The maximum HCl concentration in the reaction volume (at a ligand concentration of 20 μM) is thus 200 μM, well within the range of the buffer used. Relevant controls were also performed to check for interference with the assay. 96-Well plates (MJ Research, Waltham, Mass.) were prepared by aliquoting 50 μl of the annealed DNA into each well, followed by 50 μl of the compound solutions. Measurements were made on a DNA Engine Opticon (MJ Research) with excitation at 450-495 nm and detection at 515-545 nm. Fluorescence readings were taken at intervals of 0.5° C. in the range 30-100° C., with a constant temperature being maintained for 30 s prior to each reading to ensure a stable value. Final analysis of the data was carried out using a script written in the program Origin 7.0 (OriginLab Corp., Northampton, Mass.). The advanced curve-fitting function in Origin 7.0 was used for calculation of ΔTm values. All determinations were performed in triplicate or better. Esds in ΔTm are ±0.1° C. […]

[3] = test system: HSP90b promoter quadruplex sequence; assay: FRET melting assay, Hsp90B quadruplex; assay type: binding; conditions: for change in melting temperature Hsp90B 1 uM: 1 uM ligand; for change in melting temperature Hsp90B 2 uM: 2 uM ligand
From the text: as §4, §5

[4] = test system: RCC4 (renal) cells; assay: SRB growth inhibition assay, 96 hr exposure, RCC4; assay type: cell-based, human
Experimental: as §1, §2, §3

[5] = test system: human telomeric G-quadruplex DNA (F21T); assay: FRET melting assay, human telomeric quadruplex; assay type: binding; conditions: for change in melting temperature F21T 1 uM: 1 uM ligand; for change in melting temperature F21T 2 uM: 2 uM ligand
From the text: as §4
(§6) The labelled oligonucleotides have attached to them the donor fluorophore FAM: 6-carboxyfluorescein and the acceptor fluorophore TAMRA: 6-carboxytetramethylrhodamine. The FRET probe sequences were diluted from stock to the correct concentration (400 nM) in a 60 mM potassium cacodylate buffer (pH 7.4) and then annealed by heating to 85° C. for 10 min, followed by cooling to room temperature in the heating block. The compound was stored as a 10 mM stock solution in DMSO; final solutions (at 2×concentration) were prepared using 10 mM HCl in the initial 1:10 dilution, after which 60 mM potassium cacodylate buffer (pH 7.4) was used in all subsequent steps. The maximum HCl concentration in the reaction volume (at a ligand concentration of 20 μM) is thus 200 μM, well within the range of the buffer used. Relevant controls were also performed to check for interference with the assay. 96-Well plates (MJ Research, Waltham, Mass.) were prepared by aliquoting 50 μl of the annealed DNA into each well, followed by 50 μl of the compound solutions. Measurements were made on a DNA Engine Opticon (MJ Research) with excitation at 450-495 nm and detection at 515-545 nm. Fluorescence readings were taken at intervals of 0.5° C. in the range 30-100° C., with a constant temperature being maintained for 30 s prior to each reading to ensure a stable value. Final analysis of the data was carried out using a script written in the program Origin 7.0 (OriginLab Corp., Northampton, Mass.). The advanced curve-fitting function in Origin 7.0 was used for calculation of ΔTm values. All determinations were performed in triplicate or better. Esds in ΔTm are ±0.1° C.
The ability of compounds 3a-h to stabilize a human telomeric quadruplex was assessed by a high-throughput FRET (Fluorescence Resonance Energy Transfer) melting technique. […] None of the furan tetrahydrofuran, pyranose or acyclic ether compounds has any effect on quadruplex or duplex stability.
(§7) The T-loop sequence represents duplex DNA.

[6] = test system: Panc1 (pancreatic) cells; assay: SRB growth inhibition assay, 96 hr exposure, Panc1; assay type: cell-based, human; conditions: 96 hr exposure
Experimental: as §1, §2, §3

[7] = test system: duplex DNA (T-loop); assay: FRET melting assay, duplex DNA; assay type: binding; conditions: for change in melting temperature Tloop 1 uM: 1 uM ligand; for change in melting temperature Tloop 2 uM: 2 uM ligand
From the text: as §4, §6, §7

[8] = test system: WI38 normal human fibroblast cells; assay: SRB growth inhibition assay, 96 hr exposure, WI38; assay type: cell-based
Experimental: as §1
as §2, with “nM). […]” for “nM).”

[9] = test system: A549 (lung) cells; assay: SRB growth inhibition assay, 96 hr exposure, A549; assay type: cell-based, human
Experimental: as §1, §2, §3

[10] = test system: MiaPaCa2 (pancreatic) cells; assay: SRB growth inhibition assay, MiaPaCa2; assay type: cell-based, human; conditions: SRB assay, 96 hr exposure
Experimental: as §1, §2
Dose-response curves were used to guide the choice of compound concentration and time-points for the array experiments (FIG. 2a). […] To explore this response continuum the transcriptional signature of cells exposed for 24 h to 20 nM, 40 nM, 80 nM concentrations of 3d, or solvent alone as control, was analysed as described in Materials and Methods.
as §3

[11] = test system: 786-O (renal) cells; assay: SRB growth inhibition assay, 96 hr exposure, 786-O; assay type: cell-based, human; conditions: SRB assay, 96 hr exposure
Experimental: as §1, §2, §3

[12] = Homo sapiens, A549, 96 hr exposure

Compound	change in melting temperature Hsp90A 1 uM [2]	change in melting temperature Hsp90A 2 uM [2]	change in melting temperature Hsp90B 1 uM [3]	change in melting temperature Hsp90B 2 uM [3]	change in melting temperature F21T 1 uM [5]	change in melting temperature F21T 2 uM [5]	change in melting temperature Tloop 1 uM [7]	change in melting temperature Tloop 2 uM [7]	IC50 ([1]; Homo sapiens, MCF7) [nM]	IC50 ([4]; Homo sapiens, RCC4) [nM]	IC50 ([8]; Homo sapiens, WI-38) [nM]	IC50 [9, 12] [nM]	IC50 ([10]; Homo sapiens, MIA PaCa-2) [nM]	IC50 ([11]; Homo sapiens, 786-0) [nM]	other results
CN1CCN(CCCN2C(=O)c3cc(NCC4CCCO4)c4c5c(cc(NCC6CCCO6)c(c35)C2=O)C(=O)N(CCCN2CCN(C)CC2)C4=O)CC1 (racemic) [SKM038]	21	23	13	17	<2	15	0	0	–	–	–	–	–	–	IC50 [1]: 560 ± 34 nM; IC50 [4]: 3000 ± 170 nM; IC50 [6]: 1500 ± 170 nM; IC50 [8]: 2300 ± 80 nM; IC50 ([9]; 96 hr exposure): 160 ± 2 nM; IC50 [10]: 95 ± 3 nM; IC50 [11]: 390 ± 20 nM
CN1CCN(CCCNc2cc3c4c(c(NCCCN5CCN(C)CC5)cc5c4c2C(=O)N(CC2CCCO2)C5=O)C(=O)N(CC2CCCO2)C3=O)CC1 (stereo not drawn) [MM10]	27	30	21	28	23	26	0	0	> 10000	> 10000	> 10000	5570 ± 870	5650 ± 930	> 10000	–
CN1CCN(CCCNc2cc3c4c(c(NCCCN5CCN(C)CC5)cc5c4c2C(=O)N(CC2CCOCC2)C5=O)C(=O)N(CC2CCOCC2)C3=O)CC1 [MM33]	<2	<2	<2	<2	<2	<2	0	0	3120 ± 130	8380 ± 500	12650 ± 110	2920 ± 10	2500 ± 10	1200 ± 30	–
COCCCN1C(=O)c2cc(NCCCN3CCN(C)CC3)c3c4c(cc(NCCCN5CCN(C)CC5)c(c24)C1=O)C(=O)N(CCCOC)C3=O [MM43]	29	32	24	29	<2	22	0	0	5620 ± 150	10500 ± 140	3320 ± 500	2540 ± 10	2790 ± 90	7170 ± 410	–
CN1CCN(CCCNc2cc3c4c(c(NCCCN5CCN(C)CC5)cc5c4c2C(=O)N(CCN2CCOCC2)C5=O)C(=O)N(CCN2CCOCC2)C3=O)CC1 [MM45]	34	36	29	34	27	31	0	1	170 ± 10	1750 ± 180	610 ± 20	1550 ± 20	40 ± 10	630 ± 60	–
CN1CCN(CCNc2cc3c4c(c(NCCN5CCN(C)CC5)cc5c4c2C(=O)N(CCCN2CCOCC2)C5=O)C(=O)N(CCCN2CCOCC2)C3=O)CC1 [MM47]	32	36	31	34	28	33	8	12	30 ± 10	280 ± 60	2460 ± 20	23 ± 6	10 ± 10	–	–
